Like-named read-outs stand apart in the source and are kept apart here.
Key:
[1] = test system: Key Grass and Sedge Weeds as well as Grass Crops; experiment: Post-emergent Test II herbicidal activity (Table 16); assay type: in vivo; conditions: post-emergence, 336 h, 14 d; for pest or weed control at 35 g/ha: 35 g ai/ha; for pest or weed control at 70 g/ha: 70 g ai/ha; for pest or weed control at 140 g/ha: 140 g ai/ha
Method in brief: (§1)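 Visual injury rating (0 = none, 100 = complete kill) taken 14 d after treatment, relative to untreated plants. Compounds in acetone/DMSO with crop oil concentrate and Triton X-155 were track-sprayed at 187 L/ha onto seedlings at the first-second true leaf stage.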

[2] = test system: Key Broadleaf Weed and Crop Species; experiment: Post-emergent Test II herbicidal activity (Table 15); assay type: in vivo; conditions: post-emergence, 336 h, 14 d; for pest or weed control at 35 g/ha: 35 g ai/ha; for pest or weed control at 70 g/ha: 70 g ai/ha; for pest or weed control at 140 g/ha: 140 g ai/ha
Method in brief: as §1

[3] = Cyperus esculentus, yellow nutsedge (Cyperus esculentus), read-out: Visual Growth Reduction (%) 14 Days After Application, CYPES
[4] = Echinochloa crus-galli, barnyardgrass (Echinochloa crus-galli), read-out: Visual Growth Reduction (%) 14 Days After Application, ECHCG
[5] = Oryza sativa, rice (Oryza sativa), read-out: Visual Growth Reduction (%) 14 Days After Application, ORYSA
[6] = Setaria faberi, giant foxtail (Setaria faberi), read-out: Visual Growth Reduction (%) 14 Days After Application, SETFA
[7] = Triticum aestivum, wheat, spring (Triticum aestivum), read-out: Visual Growth Reduction (%) 14 Days After Application, TRZAS
[8] = Zea mays, maize, corn (Zea mays), read-out: Visual Growth Reduction (%) 14 Days After Application, ZEAMX
[9] = Abutilon theophrasti, velvetleaf (Abutilon theophrasti), read-out: Visual Growth Reduction (%) 14 Days After Application, ABUTH
[10] = Amaranthus retroflexus, redroot pigweed (Amaranthus retroflexus), read-out: Visual Growth Reduction (%) 14 Days After Application, AMARE
[11] = Brassica napus, oilseed rape, canola (Brassica napus), read-out: Visual Growth Reduction (%) 14 Days After Application, BRSNN
[12] = Chenopodium album, lambsquarters (Chenopodium album), read-out: Visual Growth Reduction (%) 14 Days After Application, CHEAL
[13] = Euphorbia heterophylla, wild poinsettia (Euphorbia heterophylla), read-out: Visual Growth Reduction (%) 14 Days After Application, EPHHL
[14] = Helianthus annuus, sunflower (Helianthus annuus), read-out: Visual Growth Reduction (%) 14 Days After Application, HELAN

SMILES | melting point [°C] | pest or weed control at 35 g/ha [1, 3] [%] | pest or weed control at 70 g/ha [1, 3] [%] | pest or weed control at 140 g/ha [1, 3] [%] | pest or weed control at 35 g/ha [1, 4] [%] | pest or weed control at 70 g/ha [1, 4] [%] | pest or weed control at 140 g/ha [1, 4] [%] | pest or weed control at 35 g/ha [1, 5] [%] | pest or weed control at 70 g/ha [1, 5] [%] | pest or weed control at 140 g/ha [1, 5] [%] | pest or weed control at 35 g/ha [1, 6] [%] | pest or weed control at 70 g/ha [1, 6] [%] | pest or weed control at 140 g/ha [1, 6] [%] | pest or weed control at 35 g/ha [1, 7] [%] | pest or weed control at 70 g/ha [1, 7] [%] | pest or weed control at 140 g/ha [1, 7] [%] | pest or weed control at 35 g/ha [1, 8] [%] | pest or weed control at 70 g/ha [1, 8] [%] | pest or weed control at 140 g/ha [1, 8] [%] | pest or weed control at 35 g/ha [2, 9] [%] | other results
COC(=O)c1nc(-c2ccc3ccoc3c2F)cc(N)c1Cl [Compound 2.11] | 148 | 0 to 29 | 0 to 29 | 30 to 44 | 85 to 94 | 95 to 100 | 95 to 100 | 0 to 29 | 0 to 29 | 0 to 29 | 45 to 59 | 60 to 74 | 75 to 84 | 0 to 29 | 0 to 29 | 30 to 44 | 45 to 59 | 60 to 74 | 85 to 94 | 95 to 100 | pest or weed control at 70 g/ha [2, 9]: 95 to 100%; pest or weed control at 140 g/ha [2, 9]: 95 to 100%; pest or weed control at 35 g/ha [2, 10]: 95 to 100%; pest or weed control at 70 g/ha [2, 10]: 95 to 100%; pest or weed control at 140 g/ha [2, 10]: 95 to 100%; pest or weed control at 35 g/ha [2, 11]: 75 to 84%; pest or weed control at 70 g/ha [2, 11]: 85 to 94%; pest or weed control at 140 g/ha [2, 11]: 95 to 100%; pest or weed control at 35 g/ha [2, 12]: 95 to 100%; pest or weed control at 70 g/ha [2, 12]: 95 to 100%; pest or weed control at 140 g/ha [2, 12]: 95 to 100%; pest or weed control at 35 g/ha [2, 13]: 95 to 100%; pest or weed control at 70 g/ha [2, 13]: 95 to 100%; pest or weed control at 140 g/ha [2, 13]: 95 to 100%; pest or weed control at 35 g/ha [2, 14]: 45 to 59%; pest or weed control at 70 g/ha [2, 14]: 60 to 74%; pest or weed control at 140 g/ha [2, 14]: 75 to 84%
COC(=O)c1nc(-c2ccc(Cl)c3occc23)c(F)c(N)c1Cl [Compound 2.16, Methyl 4-amino-3-chloro-6-(7-chlorobenzofuran-4-yl)-5-fluoropicolinate] | 184 to 186 | 0 to 29 | 0 to 29 | 0 to 29 | 0 to 29 | 0 to 29 | 0 to 29 | 0 to 29 | 0 to 29 | 0 to 29 | 0 to 29 | 0 to 29 | 0 to 29 | 0 to 29 | 0 to 29 | 0 to 29 | 45 to 59 | 95 to 100 | 95 to 100 | 85 to 94 | pest or weed control at 70 g/ha [2, 9]: 95 to 100%; pest or weed control at 140 g/ha [2, 9]: 95 to 100%; pest or weed control at 35 g/ha [2, 10]: 95 to 100%; pest or weed control at 70 g/ha [2, 10]: 95 to 100%; pest or weed control at 140 g/ha [2, 10]: 95 to 100%; pest or weed control at 35 g/ha [2, 11]: 45 to 59%; pest or weed control at 70 g/ha [2, 11]: 60 to 74%; pest or weed control at 140 g/ha [2, 11]: 60 to 74%; pest or weed control at 35 g/ha [2, 12]: 95 to 100%; pest or weed control at 70 g/ha [2, 12]: 95 to 100%; pest or weed control at 140 g/ha [2, 12]: 95 to 100%; pest or weed control at 35 g/ha [2, 13]: 0 to 29%; pest or weed control at 70 g/ha [2, 13]: 0 to 29%; pest or weed control at 140 g/ha [2, 13]: 0 to 29%; pest or weed control at 35 g/ha [2, 14]: 95 to 100%; pest or weed control at 70 g/ha [2, 14]: 95 to 100%; pest or weed control at 140 g/ha [2, 14]: 95 to 100%
COC(=O)c1nc(-c2ccc(Cl)c3[nH]ccc23)cc(N)c1Cl [Compound 1.44] | 116 | 0 to 29 | 0 to 29 | 0 to 29 | 0 to 29 | 0 to 29 | 0 to 29 | 0 to 29 | 0 to 29 | 0 to 29 | 0 to 29 | 0 to 29 | 0 to 29 | 0 to 29 | 0 to 29 | 0 to 29 | 0 to 29 | 0 to 29 | 0 to 29 | 0 to 29 | pest or weed control at 70 g/ha [2, 9]: 75 to 84%; pest or weed control at 140 g/ha [2, 9]: 85 to 94%; pest or weed control at 35 g/ha [2, 10]: 85 to 94%; pest or weed control at 70 g/ha [2, 10]: 95 to 100%; pest or weed control at 140 g/ha [2, 10]: 95 to 100%; pest or weed control at 35 g/ha [2, 11]: 0 to 29%; pest or weed control at 70 g/ha [2, 11]: 0 to 29%; pest or weed control at 140 g/ha [2, 11]: 30 to 44%; pest or weed control at 35 g/ha [2, 12]: 85 to 94%; pest or weed control at 70 g/ha [2, 12]: 85 to 94%; pest or weed control at 140 g/ha [2, 12]: 95 to 100%; pest or weed control at 35 g/ha [2, 13]: 45 to 59%; pest or weed control at 70 g/ha [2, 13]: 75 to 84%; pest or weed control at 140 g/ha [2, 13]: 85 to 94%; pest or weed control at 35 g/ha [2, 14]: 0 to 29%; pest or weed control at 70 g/ha [2, 14]: 0 to 29%; pest or weed control at 140 g/ha [2, 14]: 0 to 29%

Reference: patent US20170050957A1, “4-AMINO-6-(HETEROCYCLIC)PICOLINATES AND 6-AMINO-2-(HETEROCYCLIC)PYRIMIDINE-4-CARBOXYLATES AND THEIR USE AS HERBICIDES” (Dow AgroSciences LLC, priority 2013, published 2017)
